In US12653800B2, “Small molecule inhibitors of TLR2 signaling” (University of Maryland, Baltimore, priority 2015, dated 2026):

Experiments:
TLR2/6 = TLR2/6 (Homo sapiens, UniProt O60603); assay: P2C-induced IL-8 mRNA (qRT-PCR) in HEK-TLR2 stable transfectants; type: cell-based; design: expressed in transfected cells; conditions: 100 μM compound, 1 hr pretreatment, P2C 5 ng/mL 1 hr, HEK-TLR2 cells; read-out: decrease of P2C-induced IL-8 mRNA
TLR2/1 = TLR2/1 (Mus musculus, UniProt Q9QUN7); assay: Cytokine mRNA/protein in murine peritoneal macrophages stimulated with TLR2/1 agonists (P3C, LTA SA); type: cell-based; conditions: murine macrophages, 25 μM or 50 μM, P3C 50 ng/mL 1 hr
[1] = in vivo; stated for o-vanillin, reported previously for its isomer vanillin (Beaudry 2010); cited from earlier work

Chain of TLR2/6 (O60603 21-784): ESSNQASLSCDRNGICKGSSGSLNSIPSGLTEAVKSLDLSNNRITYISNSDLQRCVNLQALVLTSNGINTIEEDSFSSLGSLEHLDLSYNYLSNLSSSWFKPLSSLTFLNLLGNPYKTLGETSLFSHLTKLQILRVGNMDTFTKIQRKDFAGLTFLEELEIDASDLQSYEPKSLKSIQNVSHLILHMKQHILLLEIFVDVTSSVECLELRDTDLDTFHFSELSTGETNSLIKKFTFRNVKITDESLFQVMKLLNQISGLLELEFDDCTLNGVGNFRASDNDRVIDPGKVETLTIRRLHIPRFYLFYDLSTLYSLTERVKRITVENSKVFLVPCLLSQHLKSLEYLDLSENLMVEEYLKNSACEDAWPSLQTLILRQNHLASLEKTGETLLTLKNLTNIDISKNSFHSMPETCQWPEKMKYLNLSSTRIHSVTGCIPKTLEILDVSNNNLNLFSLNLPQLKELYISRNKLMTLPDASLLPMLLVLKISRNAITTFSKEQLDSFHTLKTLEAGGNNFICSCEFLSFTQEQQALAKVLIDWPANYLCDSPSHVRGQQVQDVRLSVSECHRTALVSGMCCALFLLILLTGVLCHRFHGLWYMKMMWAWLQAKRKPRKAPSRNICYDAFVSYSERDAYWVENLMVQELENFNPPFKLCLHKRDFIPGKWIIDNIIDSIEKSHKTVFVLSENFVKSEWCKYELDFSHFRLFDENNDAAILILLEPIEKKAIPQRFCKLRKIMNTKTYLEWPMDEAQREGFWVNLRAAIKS
Chain of TLR2/1 (Q9QUN7 25-784): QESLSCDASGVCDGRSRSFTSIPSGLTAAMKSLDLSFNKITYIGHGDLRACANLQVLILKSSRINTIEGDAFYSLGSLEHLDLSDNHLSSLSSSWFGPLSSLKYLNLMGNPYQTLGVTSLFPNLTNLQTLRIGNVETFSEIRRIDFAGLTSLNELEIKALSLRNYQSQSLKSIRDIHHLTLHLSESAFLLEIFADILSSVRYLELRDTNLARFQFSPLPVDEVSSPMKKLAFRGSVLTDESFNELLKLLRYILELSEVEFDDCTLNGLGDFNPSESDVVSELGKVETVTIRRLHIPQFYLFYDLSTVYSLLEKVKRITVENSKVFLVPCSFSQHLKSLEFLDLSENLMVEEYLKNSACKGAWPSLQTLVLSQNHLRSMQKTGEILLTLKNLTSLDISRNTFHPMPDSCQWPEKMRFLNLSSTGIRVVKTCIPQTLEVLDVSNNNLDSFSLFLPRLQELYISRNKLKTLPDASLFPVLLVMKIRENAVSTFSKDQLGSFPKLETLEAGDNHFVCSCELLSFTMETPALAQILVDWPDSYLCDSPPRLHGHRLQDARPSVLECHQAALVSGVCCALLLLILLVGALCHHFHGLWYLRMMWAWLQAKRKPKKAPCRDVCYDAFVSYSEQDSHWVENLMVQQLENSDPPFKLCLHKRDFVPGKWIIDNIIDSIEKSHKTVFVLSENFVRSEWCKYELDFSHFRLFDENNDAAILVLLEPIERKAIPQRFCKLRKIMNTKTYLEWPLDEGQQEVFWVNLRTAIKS

Row | inhibition at 100 µM (TLR2/6) [%] | SMILES | other results
1 | ≥ 50 | CN(CC(=O)Nc1ccc2c(c1)OCO2)S(=O)(=O)c1cccs1 [Compound C24] | –
2 | ≥ 50 | COc1cccc(-c2nc(CSCC(=O)NCCN3CCOCC3)c(C)o2)c1 [Compound C25] | –
3 | ≥ 50 | COc1ccc(-c2nc(CSCC(=O)NCc3cccnc3)c(C)o2)cc1OC [Compound C26] | –
4 | – | Cc1c(N)cccc1C(=O)O [Compound C29R, 3-amino-2-methylbenzoic acid, reference compound] | TLR2/1-induced TNF-α gene expression (TLR2/1): but not C29R, dose-dependently inhibited
5 | ≥ 50 | O=C(CCC1N=C2c3ccccc3NC(=S)N2C1=O)NCc1ccco1 (centres unmarked) [Compound C30] | –
6 | ≥ 50 | CCN(CCCNc1nc(=S)[nH]c2ccccc12)c1ccccc1 [Compound C32] | –
7 | ≥ 50 | Cc1ccc(S(=O)(=O)NCCC(=O)NCCc2ccccc2)cc1 [Compound C33] | –
8 | – | COc1cc(C=O)ccc1O [vanillin, reference compound] | bioavailability [1]: poor bioavailability
